What was measured:
HeLa cells = test system: HeLa cells; design: method as in PMID 31200286; settings: same cell line; read-out: IC50 against HeLa cells, positive control; cited from earlier work
[1] = design: method as in PMID 35200663; settings: cell line not given; cited from earlier work
[2] = DPPH antioxidant activity assay
Description: To evaluate four synthesized compounds and Trolox (as a positive control), a 1 mg/mL concentration in methanol was first made from phenyl alcohol. The prepared solution was produced in concentrations of 1, 2, 3, 5, 7, 10, 20, 30, 50, and 80 µg/mL. The DPPH reagent was then diluted in 0.002% w/v methanol and combined in a […] ratio with the previously produced working concentrations. A blank solution of 100% methanol was used. All solutions were incubated at room temperature for 30 min in a dark environment. Their absorbance values were then determined using a UV-visible spectrophotometer set at a wavelength of 517 nm. The antioxidant capacity of each chemical compound fraction and Trolox were calculated using the following formula:% inhibition = ((Abs blank − Abs Sample)/Abs Blank) × 100 where:
Abs blank: Absorbance value of the control reaction containing all reagents except the synthesized compound.
Abs sample: The absorbance value of the synthesized compound [48].

**Q.** Which IC50 (HeLa cells) does the source give for `COc1cccc2c1C(=O)c1c(O)c3c(c(O)c1C2=O)C[C@@](O)(C(=O)CO)C[C@@H]3O[C@H]1C[C@H](N)[C@H](O)[C@H](C)O1` [doxorubicin] here?
**A.** The IC50 was 1100 ± 15 nM.

**Q.** With `C=C1C(=O)O[C@H]2/C=C(\C)CC/C=C(\C)CCC(=O)[C@]3(C)O[C@@H]3C[C@@H]12` [crassocolide N] as the molecule, how does the “cytotoxicity IC50” value [1] read?
**A.** Its value is 4.7 µg/mL.

**Q.** Which “% inhibition of DPPH radical (radical scavenging)” value (shortened to “% inhibition of DPPH radical”) ([2]; 1 µg/mL) does the source give for `Cc1c(C)c2c(c(C)c1O)CCC(C)(C(=O)O)O2` (stereo not drawn) [Trolox, reference compound] here?
**A.** The value was 30.5 ± 2.2%.

**Q.** What about the “% inhibition of DPPH radical” value ([2]; 2 µg/mL) of the same molecule?
**A.** The value was 23.6 ± 1.3%.

**Q.** What about the “% inhibition of DPPH radical” value ([2]; 3 µg/mL) of the same molecule?
**A.** Its value is 61.4 ± 5.3%.

**Q.** And the “% inhibition of DPPH radical” value ([2]; 5 µg/mL)?
**A.** The value was 90.7± 11.3%.

**Q.** And the “% inhibition of DPPH radical” value ([2]; 7 µg/mL)?
**A.** Its value is 95.3 ± 10.7%.

**Q.** And the “% inhibition of DPPH radical” value ([2]; 10 µg/mL)?
**A.** The value was 95.9± 9.5%.

**Q.** And the “% inhibition of DPPH radical” value ([2]; 20 µg/mL)?
**A.** The value was 96.7 ± 12.5%.

**Q.** What about the “% inhibition of DPPH radical” value ([2]; 30 µg/mL) of the same molecule?
**A.** The value was 97.2 ± 8.5%.

**Q.** What about the “% inhibition of DPPH radical” value ([2]; 50 µg/mL) of the same molecule?
**A.** Its value is 98.1± 9.2%.

**Q.** What about the “% inhibition of DPPH radical” value ([2]; 80 µg/mL) of the same molecule?
**A.** The value was 98.9± 11.8%.

From article PMC12030165, “Bioactivity of Synthesized Trifluoromethyl Thioxanthone Analogues” (Pharmaceuticals, 2025)
